According to patent publication US11873486B2, “Modulating dsRNA editing, sensing, and metabolism to increase tumor immunity and improve the efficacy of cancer immunotherapy and/or modulators of intratumoral interferon” (Dana-Farber Cancer Institute, Inc., priority 2017, dated 2024):
“Also recorded” adds a separate entry of the source.

What was measured:
ADA2 = molecular target: T1, ADA2 (Homo sapiens, UniProt Q9NZK5); conditions: cited from earlier work
T1 sequence (Q9NZK5 30-511): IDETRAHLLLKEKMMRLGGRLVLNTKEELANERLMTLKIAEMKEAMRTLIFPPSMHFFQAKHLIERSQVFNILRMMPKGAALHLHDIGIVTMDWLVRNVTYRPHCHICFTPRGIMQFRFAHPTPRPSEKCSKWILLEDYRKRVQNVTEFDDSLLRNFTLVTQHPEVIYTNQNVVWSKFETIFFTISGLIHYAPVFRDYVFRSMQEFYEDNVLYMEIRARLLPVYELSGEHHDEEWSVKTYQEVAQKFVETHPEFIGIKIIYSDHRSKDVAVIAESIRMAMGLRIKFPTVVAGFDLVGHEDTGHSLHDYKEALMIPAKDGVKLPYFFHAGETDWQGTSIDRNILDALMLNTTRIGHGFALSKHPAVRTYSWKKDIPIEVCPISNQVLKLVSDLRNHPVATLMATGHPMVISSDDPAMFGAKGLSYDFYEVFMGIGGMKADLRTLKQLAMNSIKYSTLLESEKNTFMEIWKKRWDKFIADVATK

[1] = tested on: interferon stimulated genes in ADAR-dependent cell lines; assay: Immunoblot of interferon stimulated gene expression after inhibitor treatment; format: cell-based, human; conditions: for ISG expression / interferon signaling: antioxidant treatment of ADAR-dependent cell lines
Experimental: (§1) For drug treatment assays, cells were plated at a density of 3000 cells per well in a 96-well assay plate. The following day, cells were treated with ruxolitinib (INCB018424) from Selleck Chemicals; MRT67307 hydrocloride (SML0702) from Sigma-Aldrich; human interferon-alphal (#8927) from Cell Signaling; recombinant human IFN-beta 1a (mammalian) protein (114151) and recombinant human IFN-gamma protein (285-IF-100) from R&D Systems. For preincubation drug treatment experiments, cells were plated in the presence of ruxolitinib and were treated with interferon-0 and ruxolitinib the following day. Control wells were treated with dimethylsulfoxide (DMSO). Cell viability was assayed 3 or 6 days after drug treatment with CellTiter-Glo® Luminescent Cell Viability Assay kit (Promega). Viability was normalized to DMSO controls.
Cells were lysed in RIPA lysis buffer (Thermo Scientific) supplemented with 1× protease and phosphatase inhibitor cocktails (Roche). Protein extracts were analyzed by standard immunoblotting with the following antibodies: ADAR1 (D7E2M), MDA5 (D74E4), RIG-I (D14G6), ISG15 (22D2), USP18 (D4E7), PKR (#3072), STING (D2P2F), cGAS (D1D3G), IRF9 (D2T8M), PD-L1 (E1L3N), P-IRF3 Ser396 (4D4G), IRF3 (D6I4C), P-TBK1 Ser172 (D52C2), TBK1 (D1B4), P-EIF2α Ser51 (#9721), and EIF2α (D7D3) from Cell Signaling; P-PKR Thr446 (ab32036) from Abcam; R-actin C4 (sc-47778) from Santa Cruz. All antibodies were used at a dilution of 1:1000 except R-actin which was used at 1:4000). The following secondary antibodies were used at 1:5000 dilution: Goat anti-Rabbit IRDye 800CW (LI-COR, 926-32211) and Goat anti-Mouse IRDye […] (LI-COR, 926-68020). All immunoblots were imaged using the LI-COR digital imaging system and ImageJ.

[2] = tested on: ADAR1 knockout A549 cells; assay: Viability of ADAR1 knockout A549 cells with interferon or drug treatment; format: cell-based, human
Experimental: as §1
for interferon treatment assays, cells were plated at a low density of 3000 cells per well in a 96-well assay plate. The following day, cells were treated with human interferon-alpha 1 (Cell Signaling, #8927) or recombinant human IFN-beta 1a (mammalian) protein (PBL Assay Science, 114151). Control wells were treated with water. Cell viability was assayed 3 or 6 days after drug treatment with CellTiter-Glo© Luminescent Cell Viability Assay kit (Promega). Viability was normalized to controls. Apoptosis was assayed 3 days after interferon treatment with Caspase-Glo®3/7 Assay kit (Promega). Dose curves were obtained using least-squares nonlinear regression on a standard four-parameter logistic model using GraphPad Prism.

B16 tumors = assay: B16 tumor challenge (tumor volume, survival); format: in vivo, mouse; conditions: topical, every three days
Description: The designs of these animal studies and procedures were approved by the Dana Farber Cancer Institute IACUC committee. Dana Farber's specific-pathogen free facility was used for the storage and care of all mice. Seven-week old wild-type female C57BL/6J mice were obtained from Jackson laboratories (Bar Harbor, ME). A colony of B6.129S2-Tcra^tm1Mom/J (Tcra) T cell-deficient mice were bred on site. Mice were aged matched to be 7-12 weeks old at the time of tumor inoculation. For screening, 2.0×10^6 library-transduced B16-Cas9 cells resuspended in Hanks Balanced Salt Solution (Gibco, Thermo Fisher Scientific, Waltham, MA) were mixed 1:1 by volume with Matrigel® (Corning, Corning, NY) and subcutaneously injected into the right flank on day 0. Mice were vaccinated with 1.0×10^6 GM-CSF-secreting B16 (GVAX) cells that had been irradiated with […] on days 1 and 4 to elicit an anti-tumor immune response. Subsequently, mice were treated with 100 μg of rat monoclonal anti-PD1 antibody (clone: 29F.1A12) on days 9 and 12 via intraperitoneal injection. For validation assays, 1.0×10^6 tumor cells were subcutaneously injected into the right flank without matrigel. Tumors were measured every 3 days beginning on day 6 after challenge until time of death. Measurements were taken manually by collecting the longest dimension (length) and the longest perpendicular dimension (width). Tumor volume was estimated with the formula: (L×W^2)/2. CO2 inhalation was used to euthanize mice on the day of sacrifice.
The designs of animal studies and procedures were approved by the Dana Farber Cancer Institute IACUC and the Broad Institute IACUC committees. Specific pathogen-free facilities at the Dana Farber and the Broad Institute were used for the storage and care of all mice. Six-week old wild-type female C57BL/6J mice were obtained from Jackson laboratories, Bar Harbor ME A colony of B6.129S2-Tcra^tm1Mom/J (Tcra) T cell-deficient mice were bred on site at the Dana Farber. […] Tumors were measured every 3 days beginning on day 6 after challenge until time of death. […]

ADA1 = molecular target: T2, ADA1 (Homo sapiens, UniProt P00813); conditions: cited from earlier work
T2 sequence (P00813 1-363): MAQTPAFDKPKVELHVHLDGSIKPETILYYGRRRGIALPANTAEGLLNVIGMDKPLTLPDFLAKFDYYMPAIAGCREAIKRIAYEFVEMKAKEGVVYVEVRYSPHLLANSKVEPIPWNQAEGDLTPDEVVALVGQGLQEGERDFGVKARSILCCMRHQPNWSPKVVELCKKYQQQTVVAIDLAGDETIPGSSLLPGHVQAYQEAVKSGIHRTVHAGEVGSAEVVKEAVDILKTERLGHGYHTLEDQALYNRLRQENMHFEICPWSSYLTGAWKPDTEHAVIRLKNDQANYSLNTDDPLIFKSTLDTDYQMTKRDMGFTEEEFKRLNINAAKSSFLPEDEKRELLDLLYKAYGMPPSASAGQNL

B16 tumor cells = assay: In vitro cytokine stimulation and growth inhibition assay; format: cell-based, mouse; conditions: Adar-deficient versus control B16 tumor cells, 72 hours
Experimental: FIG. 9 includes 3 panels, identified as panels A, B, and C, which provide exemplary mechanisms of ADAR-induced sensitivity to checkpoint blockade. […] A certain number of B16 tumor cells (50 k; Adar null or control) were stimulated in vitro with cytokine for 72 hours and the cell numbers were then counted. […] A certain number of B16 tumor cells (50 k; Adar null or control) were stimulated with cytokine in vitro, washed to remove cytokine (for IFNβ), and evaluated via IFNβ ELISA. […] A certain number of B16 tumor cells (50 k; Adar null or control) were stimulated in vitro with cytokine for 72 hours and stained for Class I MHC and PD-L1.
Tumor cells were engineered as noted above and plated in DMEM+10% FBS containing the indicated combinations of cytokines: IFN (1,000 U/ml, PBL), IFN (100 ng/ml, Cell Signaling Technologies), TNF (10 ng/ml, PreproTech). For rescue/re-expression experiments, 10,000 cells were plated in 96-well plates and viable cells were enumerated after 72 hours using Cell Titer-Glo® (Promega, G7570). For all other growth inhibition assays, 50,000 cells were plated in 12-well plates and viable cells were counted after 72 hours using the Countess automated cell counting system (Thermo Fisher Scientific, C10227).

[3] = animals bearing Adar1 null B16 tumors

Nc1ccnc2c1ncn2[C@@H]1O[C@H](CO)[C@@H](O)[C@H]1O [1-deazaadenosine]
inhibition of ADA2 (ADA2): can inhibit both ADA1 and ADA2

c1ccc2c(c1)[I+]c1ccccc1-2 [DPI, diphenylene iodonium]
ISG expression / interferon signaling [1]: partially decreased ISG expression | ISG expression / interferon signaling ([1]; listed as diphenylene iodonium (DPI)): partially alleviates interferon signaling

Cl.O=C(NCCCNc1nc(Nc2cccc(CN3CCOCC3)c2)ncc1C1CC1)C1CCC1 [MRT67307, MRT67307 hydrocloride]
ISG expression ([1]; TBK1 inhibitor treatment): reduced

COc1cccc2c1C(=O)c1c(O)c3c(c(O)c1C2=O)C[C@@](O)(C(=O)CO)C[C@@H]3O[C@H]1C[C@H](N)[C@H](O)[C@H](C)O1 [doxorubicin]
sensitization to ADAR1 knockout [2]: failed to sensitize A549 cells to ADAR1 knockout

CC(C)Cn1cnc2c(N)nc3ccccc3c21 [imiquimod]
survival (B16 tumors; [3]): enhanced survival | tumor growth (B16 tumors; [3]): significantly slowed tumor growth | survival (B16 tumors; animals bearing control B16 tumors): nor topical therapy with imiquimod, a TLR7 agonist, increased the survival

C[C@@H]1O[C@@H](O[C@H]2[C@H](Oc3cc(O)c4c(c3)O[C@H](c3ccc(O)cc3)CC4=O)O[C@H](CO)[C@@H](O)[C@@H]2O)[C@H](O)[C@H](O)[C@H]1O [naringin]
inhibition of ADA1 (ADA1): potent ADA1 inhibitor

OC[C@H]1O[C@@H](n2cnc3c2NC=NC[C@H]3O)C[C@@H]1O [pentostatin]
inhibition of ADA2 (ADA2): can inhibit both ADA1 and ADA2

IFNγ
cytokine-induced growth arrest (B16 tumor cells): increases IFNβ and IFNγ-induced growth arrest; also recorded: increases susceptibility to IFNβ and IFNγ

Type II interferon: recombinant human IFN-gamma protein (R&D Systems)
sensitization to ADAR1 knockout [2]: did not sensitize A549 cells to ADAR1 knockout

erythro-9-(2-hydroxy-3-nonyl)adenine [EHNA]
inhibition of ADA1 (ADA1): specifically inhibits ADA1
